Legend:
[1] = tested on: purified DNA from C. jejuni; test: DNase treatment of purified DNA, 5'-nuclease PCR; assay type: biochemical; conditions: after 30 minutes of DNase treatment
Experimental: (§1) Amplification reactions (50 μl) contained a DNA sample (1 μl), 1× TaqMan™ Buffer A, 5 mM MgCl2, 200 μM dATP, dCTP, dGTP, and 400 μM dUTF, 0.02 μM. C. Jejuni specific probe, 0.3 μM C. jejuni specific primers—see Table 1 below (each), 1 U AmpErase™ Uracil N-glycosylase (UNG), and 2.5 U AmpliTaq Gold™ DNA polymerase.
(§2) Before amplification, the PCR mixture was heated to 50° C. in 5 min to let the UNG destroy possibly contaminating PCR products, and 95° C. for 10 min to denature the template DNA. Amplification, profile: 40 cycles of 95° C. for 20 seconds and 60° C. for one minute. Reactions were performed in the ABI Prism® 7700 Sequence Detection System (PE Biosystems, Foster City, Calif., USA). Reaction conditions were programmed and data were analyzed on a power Macintosh 4400/20 (Apple Computer, Santa Clara, Calif., USA) linked directly to the ABE prism® 7700 Sequence Detection system using the SDS 1.6.3 application software (PE Biosystems, Foster City, Calif., USA) as described by the manufacturer.
The amplification was plotted as ΔRn, which was the normalized reporter signal (reporter signal minus background), against number of cycles. […] This gave threshold cycles (CT), which is defined as the PCR cycle where an increase in fluorescence first occurred, for each amplification plot. […]

[2] = tested on: Campylobacter jejuni type strain DSMZ 4688; test: Effect of externally added DNase on DNA in heat-treated cells, 5'-nuclease PCR; assay type: cell-based; conditions: for reduction of the signal compared to control without DNase: 10 U DNase
Experimental: The effect on the DNA stability at room temperature after heat-treatment of the cultures, and after addition of DNase was investigated. 1.7±0.8×10^7 cells (with DNase) and 5.0±0.6×10^7 cells (without DNase) of C. jejuni type strain were used in these experiments. […] One set of tubes were then incubated further at room temperature, and samples for PCR analysis removed at intervals of 5, 15, and 30 min, 1 h, 6 and 24 hrs, and 5 days. 10 U RQl DNase (Promega, Madison, Wis., USA) and 1× DNase buffer were added to another set of tubes before the incubation at room temperature. Aliquots were analyzed after 5, 15 and 30 min, and after 1 hr, 6 and 24 hours. For the PCR analysis, DNA was purified from 10 μl aliquots from the respective time-points, and the subsequent 5′-nuclease PCR assay performed as described below.
Dynabeads® DNA Direct I (Dynal AS, Oslo, Norway), 200 μl, were then added to the suspension of bacteria, and the bacteria-bead suspension was incubated at 65° C. for 20 minutes, followed by incubation at room temperature for another 2 minutes. DNA bound to magnetic beads was then drawn to the wall of the microcentrifuge tube by a magnet (MPC®-E, Dynal AS, Oslo, Norway) for 2 minutes. The supernatant containing salts, detergent and cell debris was carefully removed without disrupting the Dynabeads/DNA complex. The beads were washed twice with a washing buffer (buffer 2 from the kit). Finally, the DNA was removed from the beads by resuspending in 40 μl 10 mM Tris HCl, pH 8.0 (buffer 3 from the kit), and incubation at 65° C. for 5 minutes. The beads, now released from the DNA, were collected with the magnet, and the DNA-containing supernatant was transferred to a fresh tube and used directly in the PCR.
as §1, §2
The amplification was plotted as ΔRn, which was the normalized reporter signal (reporter signal minus background), against number of cycles. […] This gave threshold cycles (CT), which is defined as the PCR cycle where an increase in fluorescence first occurred, for each amplification plot. […] The CT-values were plotted against log input DNA/cells and gave standard curves for quantification of unknown samples and possibilities to estimate the amplification efficiency in the reaction (Heid, C. A., J. Stevens, K. J. Livak and P. M. Williams, 1996, Real time quantitative PCR, Genome Research 6: 986-994; PE Biosystems, 1997, User bulletin 2; ABI PRISM 7700 Sequence Detection System). […]

DNA = test: Time to light inactivation of EMA, real time quantitative PCR; assay type: biochemical; conditions: EMA exposed to light for 30 s or more prior to binding to DNA; 2, 20, 100 ng/μl
Experimental: (§3) Amplification reactions (50 μl) contained a DNA sample (1-5 μl), 1× TaqMan™ Buffer A, […], 200 μM dATP, dCTP, dGTP, and 400 μM dUTP, 0.1 μM E. coli specific probe, 0.3 μM E. coli specific primers (each), and 2.5 U AmpliTaq GoldT™ DNA polymerase. PCR samples and controls were prepared in triplicates. Reaction tubes were MicroAmp® Optical tubes and tube caps were MicroAmp® Optical caps. All consumables were supplied by PE Biosystems, Foster City, Calif., USA. Before amplification, the PCR mixture was heated to 95° C. for 10 mins to denature the template DNA. Amplification profile: 40 cycles of 95° C. for 20 seconds and 60° C. for one minute. Reactions were performed in the ABI prism® 7700 Sequence Detection System (PE Biosysrems, Foster City, Calif., USA).
(§4) The amplification was plotted as ΔRn, which was the normalized reporter signal (reporter signal minus background), against number of cycles. One then chose a threshold signal, which intersected the amplification curves in the linear region of the semi-log plot. This gave threshold cycles (CT), which is detined as the PCR cycle where an increase in fluorescence first occurred, for each amplification plot. Different amplification could then be compared by their respective threshold cycles.
The light activation was done on ice with a OSRAM SLG1000 lamp (OSRAM, Norway) with a 650 W halogen light bulb at a distance of 10 cm. […]

purified DNA = test: Time series for covalent binding of EMA to DNA, real time quantitative PCR; assay type: biochemical
Experimental: as §3, §4
(§5) The light activation was done on ice with a OSRAM SLG1000 lamp (OSRAM, Norway) with a 650 W halogen light bulb at a distance of 10 cm.
EMA in concentrations 2 ng/μl, 20 ng/μl and 100 ng/μl were added to purified DNA, and exposed to light for 5 s, 15 s, 45 s, 1 min and 3 min. The amount of DNA that could serve as a template was then tested by real time quantitative PCR.

E. coli = test: EMA as living/dead stain: PCR signal from living and killed E. coli; assay type: cell-based; conditions: for difference in PCR signal intensities between the treated sample and the control: light 10 minutes
Experimental: Panel B: The signal intensities were determined as pixel values in an 8 bit grayscale by using the program Gel-Pro ANALYZER software (Medica Cybernetics, Silver Spring. Md.). The relative signal intensities for the EMA treated samples are given as a percentage of the untreated samples.
E. coli was killed by ethanol, heat, and formaldehyde to test the effect of EMA as a living/dead stain. In these experiments aliquots of approximately 10^8 cells of E. coli were pelleted in a microcentrifuge at 8000 rpm for 5 minutes, the supernant removed, and the cells resuspended in 50 μl of the respective liquids; water 96% ethanol, and 2% formaldehyde. The ethanol and formaldehyde treated samples were incubated at room temperature, while the water samples were incubated both at room temperature and at 95° C. All samples were incubated at the respective temperatures for 5 minutes.
The bacteria were subsequently pelleted by centrifugation, the supernatant removed, and the cells resuspended in 50 μl water. […]
All the samples were exposed to light for 10 minutes. Subsequently, the samples were resuspended in 500 μl […] (GTC) and 1% sarkosyl containing 1U Dynabeads DNA DIRECT beads (Dynal AS, Oslo, Norway). Incubation was continued at room temperature for an additional 5 minutes. 1 ml 96% ethanol was added, and after 5 minutes the samples were washed twice with 1 ml 70% ethanol. The bead and DNA complex was then resuspended in 50 μl water, and finally heated to 65° C. for 10 minutes to remove residual ethanol. 2% of the purified DNA was used in each amplification reaction as described above.

16S rDNA gene (pure DNA) = test: PCR inhibitory effect of photoactivated and unactivated EMA on pure DNA (16S rDNA PCR, agarose gel); assay type: biochemical
Experimental: The PCR inhibitory effects of both photoactivated, and unactivated EMA were investigated for pure DNA. PCR amplifications were carried out on dilution series of 1000, 100 and 10 μg/ml EMA. The 16S rDNA gene was amplified through the application of the forward primer 5′[…]3′ and the reverse primer 5′[…]3′. These primer sites are universally conserved for eubacterial 16S rDNA.
The PCR amplifications were done using the GeneAmp 9700 PCR amplification system (PE biosystems, Norwalk, Conn., USA). The 50 μl PCR reactions contained 10 pmol of each primer, 200 μM dNTP, 10 mM Tris-HCl (pH 8.8), 1.5 mM MgCl2, 50 mM KCl, 0.1% Triton® x-100, 1 U DynaZyme™ Thermostable DNA Polymerase (Finnzymes OY, Espoo, Finland) and 2 ng template. The cycling parameters were: 94° C. for 30 s, 55° C. for 30 s and 72° C. for 1 minute.
The cycling step was repeated 25 times. The samples were heated to 94° C. for 5 minutes prior to the amplification, and an extension step at 72° C. for 7 minutes was included after completion of the amplification reactions.
For each dilution series PCR was employed both on samples where EMA had been covalently photoactivated to DNA through illumination with a Luxor 18W type FL-185 lamp (Luxor ASA, Oslo, Norway) at 5 cm for 15 minutes, and on samples where EMA had been added to the DNA in the dark. […] For 100 and 10 μg/ml, the photoactivated EMA inhibited PCR, while PCR for the unactivated EMA was not inhibited (FIG. 1). 10 μg/ml amplification products were separated on a 1% agarose gel for 45 minutes at 100 volts. The conclusion from these experiments is that EMA covalently bound to DNA is sufficient to inhibit PCR amplification, and that EMA by itself is only inhibitory to PCR at high concentrations.

E. coil 0157 strain 765 = test: Viable/dead study with EMA, TaqMan PCR; assay type: cell-based, E. coli; conditions: for PCR cycle difference: 100 ng/μl EMA for 5 min
Experimental: as §3, §4, §5
The strain was killed with 70% isopropyl ethanol for. 30 min. 10 ng/μl and 100 ng/μl EMA were added both to the viable control, and to the killed bacteria. The bacteria were exposed to EMA for 30, 1 min, 5 min, 10 min and 15 min. Exposure to 100 ng/μl for 5 min give the best discrimination with approximately 1 cycle difference for the viable bacteria, and 10 cycles (½^10) for the killed bacteria. […] For treated, i.e. dead bacteria, CT was at 20 PCR cycles for bacteria not exposed to EMA but at 30 for bacteria exposed to EMA.

Question: Which “input material (DNA) left” value [1] does the source give for DNase here?
Answer: about 0.01%

Question: And the “reduction of the signal compared to control without DNase” value (from here on “reduction … to control without DNase”) ([2]; cells heated at 72° C. for 5 min)?
Answer: 1 log

Question: And the “reduction … to control without DNase” value ([2]; cells heated at 100° C. for 5 min)?
Answer: 1 log

Question: And the “reduction … to control without DNase” value ([2]; cells heated at 121° C. for 15 min)?
Answer: 1 log

Question: And the “difference between the DNase treated samples and the control” value ([2]; cells incubated at 20° C.)?
Answer: little difference

Question: And the “difference between the DNase treated samples and the control” value ([2]; cells incubated at 55° C.)?
Answer: little difference

Question: With `CC[n+]1c(-c2ccccc2)c2cc(N=[N+]=[N-])ccc2c2ccc(N)cc21.[Br-]` [EMA, ethidium bromide monoazide] as the compound, how does the “difference between the control and the test sample” value (DNA) read?
Answer: no significant difference

Question: What about the “difference in the PCR cycles (ΔCT) until a detectable signal” value (purified DNA; EMA 2, 20 and 100 ng/μl (all concentrations tested), after light exposure) of the same compound?
Answer: approximately 12

Question: What about the “time at which the binding reaction was complete” value (purified DNA; light exposure, EMA 2-100 ng/μl) of the same compound?
Answer: about 30 s

Question: And the “fraction of DNA that could serve as a PCR template after covalent binding of EMA” value (purified DNA; ½^12, from ΔCT)?
Answer: 0,000244

Question: And the “amplification efficiency for the living bacteria” value (E. coli; EMA 100 μg/ml)?
Answer: reduced the amplification efficiency

Question: And the “discrimination between the viable and dead bacteria” value (E. coli; EMA increased to 100 μg/ml)?
Answer: did not result in a better discrimination

Question: And the “difference in PCR signal intensities between the treated sample and the control” value (E. coli; bacteria killed by heat (95° C.), EMA 10 μg/ml)?
Answer: about 100%

Question: And the “difference in PCR signal intensities between the treated sample and the control” value (E. coli; bacteria killed with ethanol, EMA 10 μg/ml)?
Answer: about 100%

Question: And the PCR inhibition (E. coli; ethanol killed bacteria (double-stranded DNA))?
Answer: 100%

Question: And the “difference in PCR signal intensities between the treated sample and the control” value (E. coli; formaldehyde treated sample, EMA 10 μg/ml)?
Answer: 85%

Question: And the PCR inhibition (E. coli; heat killed bacteria (single-stranded DNA))?
Answer: 100%

Question: What about the “difference in PCR signal intensities between the controls and the EMA sample” value (E. coli; living bacteria, EMA 10 μg/ml) of the same compound?
Answer: no differences

Question: What about the PCR inhibition (16S rDNA gene (pure DNA); non activated EMA (added in the dark), 1000 μg/ml) of the same compound?
Answer: inhibited the PCR reaction

Question: What about the PCR inhibition (16S rDNA gene (pure DNA); photoactivated EMA, 10 μg/ml) of the same compound?
Answer: inhibited PCR

Question: What about the PCR inhibition (16S rDNA gene (pure DNA); photoactivated EMA, 100 μg/ml) of the same compound?
Answer: inhibited PCR

Question: And the PCR inhibition (16S rDNA gene (pure DNA); photoactivated EMA, 1000 μg/ml)?
Answer: inhibited the PCR reaction

Question: What about the PCR inhibition (16S rDNA gene (pure DNA); unactivated EMA, 10 μg/ml) of the same compound?
Answer: not inhibited

Question: What about the PCR inhibition (16S rDNA gene (pure DNA); unactivated EMA, 100 μg/ml) of the same compound?
Answer: not inhibited

Question: And the PCR cycle difference (E. coil 0157 strain 765; killed bacteria (70% isopropyl ethanol 30 min))?
Answer: ~10 cycles

Question: What about the CT (E. coil 0157 strain 765; treated, i.e. dead bacteria exposed to EMA) of the same compound?
Answer: 30 PCR cycles

Question: What about the CT (E. coil 0157 strain 765; untreated, i.e. viable bacteria exposed to EMA) of the same compound?
Answer: 21 cycles

Question: And the PCR cycle difference (E. coil 0157 strain 765; viable bacteria)?
Answer: approximately 1 cycle

Source: patent US7262009B2, “Method of cell detection” (Matforsk; Norwegian Food Research Institute, priority 2000, dated 2007)
